Reference: patent US20200131669A1, “CYCLIC PEPTIDE COMPOUND HAVING HIGH MEMBRANE PERMEABILITY, AND LIBRARY CONTAINING SAME” (Chugai Seiyaku Kabushiki Kaisha, priority 2017, published 2020)
Starred links: 1 amine or outer side, 2 acyl side, 3 side chain; linkers in the order of their positions; H or OH if unused. Positions of bridges follow the written chain, without caps; N, C: chain ends. Non-standard residues stand in square brackets, D forms with d. Residues, ends and D or L forms follow the SMILES beside them. *: point of attachment. NMeAbu(3,3-F2-piperidino) = CN[C@@H](CCN1CCCC(F)(F)C1)C(=O)O; Phe(4-CF3) = N[C@@H](Cc1ccc(C(F)(F)F)cc1)C(=O)O; NMePhe(3-Cl) = CN[C@@H](Cc1cccc(Cl)c1)C(=O)O; X9 = O=C(CN(CCOc1ccccc1)[*:1])[*:2]; NMeF = CN[C@@H](Cc1ccccc1)C(=O)O; NMeGABA = CN(CCCC(=O)[*:2])[*:1]; dNMeF = CN[C@H](Cc1ccccc1)C(=O)O; NMeD = CN[C@@H](CC(=O)O)C(=O)O; NMeL = CN[C@@H](CC(C)C)C(=O)O; Propyl(2R-OH) = C[C@@H](O)C*; NMeV = CN[C@H](C(=O)O)C(C)C; NMeAbu = CC[C@H](NC)C(=O)O; NMeS = CN[C@@H](CO)C(=O)O; NMeA = CN[C@@H](C)C(=O)O; Piperidide = C1CCN(*)CC1; dNMeA = CN[C@H](C)C(=O)O; NBuGly = CCCCNCC(=O)O; Isopentyl = CC(C)CC*; Bn = c1ccc(C*)cc1; Sar = CNCC(=O)O; tBu = CC(C)(C)*; Propyl = CCC*

Test: Caco-2 membrane permeability, improved method as used in the following Examples (96-well, 20 to 24 h preincubation)
Format: in vitro ADME
Conditions: human, Caco-2, Caco-2
Method in brief: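 Papp (cm/sec) was derived from LC/MS of basal samples collected 180 min after apical dosing in FaSSIF/HBSS pH 6.0 with 1% DMSO, against a basal HBSS pH 7.4 receiver containing 4% BSA. Three-week Caco-2 cultures were first preincubated with compound in DMEM+FaSSIF at 37 °C for 20–24 h.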

Point of comparison: `CC(C)CCOC[C@@H]1NC(=O)[C@H](CCN2CCCC(F)(F)C2)N(C)C(=O)[C@H](Cc2ccccc2)N(C)C(=O)CN(C)C(=O)[C@H]([C@@H](C)O)NC(=O)[C@H](CC(C)C)N(C)C(=O)[C@H](CC(C)C)NC(=O)[C@H](Cc2ccccc2)N(C)C(=O)CN(C)C(=O)C[C@@H](C(=O)N2CCCCC2)NC(=O)[C@H](CC(C)C)N(C)C1=O` [pd393] ([Sar][NMeF]L[NMeL]T[Sar][NMeF][NMeAbu(3,3-F2-piperidino)]S(Isopentyl)[NMeL]D-Piperidide; lactam N-11), Papp A→B at 180 min 2.5 ×10⁻⁶ cm/s. Against it:
- CCCOC[C@@H]1NC(=O)[C@H](Cc2ccccc2)N(C)C(=O)[C@H](Cc2ccccc2)N(C)C(=O)[C@H](C(C)C)NC(=O)[C@H](CC(C)C)N(C)C(=O)CCCN(C)C(=O)C[C@@H](C(=O)N2CCCCC2)NC(=O)[C@H](CC(C)C)N(C)C(=O)[C@H](CC(C)C)N(C)C(=O)[C@H]([C@@H](C)O)NC(=O)[C@H](CC(C)C)N(C)C1=O [pd328] ([NMeGABA][NMeL]V[NMeF][NMeF]S(Propyl)[NMeL]T[NMeL][NMeL]D-Piperidide; lactam N-11) — within 1.5-fold, 2.3 ×10⁻⁶ cm/s
- CC(C)C[C@H]1C(=O)N[C@@H](COC(C)(C)C)C(=O)N(C)[C@@H](Cc2ccccc2)C(=O)N(C)[C@@H](C(C)C)C(=O)N[C@H](C(=O)N2CCCCC2)CC(=O)N[C@H](C(C)C)C(=O)N(C)[C@@H](Cc2ccccc2)C(=O)N[C@@H](COc2cccc(Cl)c2)C(=O)N(C)[C@@H](C)C(=O)N[C@@H]([C@@H](C)O)C(=O)N(C)CC(=O)N1C [pd342] — within 1.5-fold, 1.9 ×10⁻⁶ cm/s
- CC[C@H]1C(=O)N(C)[C@@H](Cc2ccccc2)C(=O)N[C@@H](C)C(=O)N(C)[C@@H](CC(C)C)C(=O)N(C)[C@@H](CC)C(=O)N[C@@H]([C@@H](C)O)C(=O)N(CCOc2ccccc2)CC(=O)N(C)[C@@H](CC(C)C)C(=O)N[C@H](C(=O)N2CCCCC2)CC(=O)N(C)[C@@H](C(C)C)C(=O)N[C@@H](CC(C)C)C(=O)N1C [pd420] ([NMeV]L[NMeAbu][NMeF]A[NMeL][NMeAbu]T[X9][NMeL]D-Piperidide; lactam N-11) — 1.8-fold higher, 4.5 ×10⁻⁶ cm/s
- CCCCN1CC(=O)N(C)[C@H](Cc2ccccc2)C(=O)N(C)[C@@H](CC(C)C)C(=O)N[C@@H](COC(C)(C)C)C(=O)N(C)[C@@H](CC(C)C)C(=O)N[C@H](C(=O)N2CCCCC2)CC(=O)N(C)CC(=O)N(C)[C@@H](Cc2ccccc2)C(=O)N[C@@H](C(C)C)C(=O)N(C)[C@@H](CC(C)C)C(=O)N[C@@H](COC[C@@H](C)O)C1=O [pd496] ([Sar][NMeF]V[NMeL]S(Propyl(2R-OH))[NBuGly][dNMeF][NMeL]S(tBu)[NMeL]D-Piperidide; lactam N-11) — 2.5-fold lower, 1 ×10⁻⁶ cm/s

Same assay, conditions: human, Caco-2, Caco-2 (cm/sec)

Point of comparison: `CC(C)C[C@@H]1NC(=O)[C@H](CC(C)C)N(C)C(=O)[C@H](CC(C)C)N(C)C(=O)CN(C)C(=O)[C@H]([C@@H](C)O)NC(=O)[C@H](CC(C)C)N(C)C(=O)[C@H](CC(C)C)N(C)C(=O)[C@H](Cc2ccc(C(F)(F)F)cc2)NC(=O)[C@@H](C(C)C)NC(=O)C[C@@H](C(=O)N2CCCCC2)NC1=O` [pd148] ([dV][Phe(4-CF3)][NMeL][NMeL]T[Sar][NMeL][NMeL]LD-Piperidide; lactam N-10), Papp A→B at 180 min 1.1 ×10⁻⁶ cm/s. Against it:
- CC[C@H](C)[C@@H]1NC(=O)[C@H](C(C)C)N(C)C(=O)[C@H](C)N(C)C(=O)[C@H]([C@@H](C)O)NC(=O)[C@H](CC(C)C)N(C)C(=O)[C@H](Cc2ccc(C(F)(F)F)cc2)NC(=O)[C@H](CC(C)C)N(C)C(=O)[C@@H](C)N(C)C(=O)C[C@@H](C(=O)N2CCCCC2)NC(=O)[C@H](CC(C)C)NC(=O)[C@@H]2CCCN2C1=O [pd133] ([dNMeA][NMeL][Phe(4-CF3)][NMeL]T[NMeA][NMeV]IPLD-Piperidide; lactam N-11) — 2.1-fold higher, 2.3 ×10⁻⁶ cm/s
- CC(C)C[C@H]1C(=O)N(C)CC(=O)N[C@@H](Cc2ccccc2)C(=O)N[C@@H](Cc2ccc(C(F)(F)F)cc2)C(=O)N(C)[C@@H](CC(C)C)C(=O)N(C)[C@@H](CC(C)C)C(=O)N[C@@H]([C@@H](C)O)C(=O)N(C)[C@H](C(=O)N2CCCCC2)CC(=O)N1C [pd150] ([NMeL][Sar]F[Phe(4-CF3)][NMeL][NMeL]T[NMeD]-Piperidide; lactam N-8) — 1.5-fold higher, 1.7 ×10⁻⁶ cm/s
- CC(C)C[C@@H]1NC(=O)[C@H](Cc2ccccc2)N(C)C(=O)[C@H]([C@@H](C)O)NC(=O)[C@H](Cc2ccccc2)NC(=O)[C@H](Cc2ccccc2)N(C)C(=O)C[C@@H](C(=O)N2CCCCC2)NC(=O)[C@H](C)N(C)C(=O)[C@H](CC(C)C)N(C)C(=O)CN(C)C(=O)[C@H](CC(C)C)N(C)C(=O)[C@H](Cc2ccccc2)N(C)C1=O [pd230] ([NMeF]FT[NMeF]L[NMeF][NMeL][Sar][NMeL][NMeA]D-Piperidide; lactam N-11) — 4.4-fold lower, 0.25 ×10⁻⁶ cm/s
- CC(C)C[C@H]1C(=O)N(C)[C@@H](Cc2ccccc2)C(=O)N(C)[C@@H](Cc2ccccc2)C(=O)N[C@@H]([C@@H](C)O)C(=O)N(C)[C@@H](C)C(=O)N(C)[C@@H](Cc2ccccc2)C(=O)N[C@H](C(=O)N2CCCCC2)CC(=O)N(C)[C@@H](C)C(=O)N(C)[C@@H](CC(C)C)C(=O)N(C)[C@@H](Cc2ccccc2)C(=O)N[C@@H](C)C(=O)N1C [pd232] ([NMeA][NMeL][NMeF]A[NMeL][NMeF][NMeF]T[NMeA][NMeF]D-Piperidide; lactam N-11) — 5.8-fold lower, 0.19 ×10⁻⁶ cm/s
- CC(C)C[C@H]1C(=O)N[C@@H](COC(C)(C)C)C(=O)N(C)[C@@H](Cc2ccccc2)C(=O)N(C)[C@@H](CC(C)C)C(=O)N(C)[C@H](C(=O)N2CCCCC2)CC(=O)N2CCC[C@H]2C(=O)N(C)[C@@H](Cc2cccc(Cl)c2)C(=O)N[C@@H](C(C)C)C(=O)N(C)[C@@H](C(C)C)C(=O)N[C@@H]([C@@H](C)O)C(=O)N(C)CC(=O)N1C [pd166] (P[NMePhe(3-Cl)]V[NMeV]T[Sar][NMeL]S(tBu)[NMeF][NMeL][NMeD]-Piperidide; lactam N-11) — 2.9-fold higher, 3.2 ×10⁻⁶ cm/s

Same assay, conditions: human; Papp, Caco-2 membrane permeability, improved method; read-out: Caco-2

Point of comparison: `CC(C)CCOC[C@H]1C(=O)N[C@@H]([C@@H](C)O)C(=O)N(C)CC(=O)N(C)[C@@H](CC(C)C)C(=O)N[C@H](C(=O)N2CCCCC2)CC(=O)N(C)[C@@H](C)C(=O)N[C@@H](CC(C)C)C(=O)N(C)[C@@H](CC(C)C)C(=O)N(C)[C@@H](Cc2ccccc2)C(=O)N[C@@H](CC(C)C)C(=O)N(C)[C@@H](Cc2ccccc2)C(=O)N1C` [pd308] ([NMeA]L[NMeL][NMeF]L[NMeF][NMeS](Isopentyl)T[Sar][NMeL]D-Piperidide; lactam N-11), Papp A→B at 180 min 2.1 ×10⁻⁶ cm/s. Against it:
- CC(C)C[C@@H]1NC(=O)[C@H](C)N(C)C(=O)C[C@@H](C(=O)N2CCCCC2)NC(=O)[C@H](CC(C)C)N(C)C(=O)CN(C)C(=O)[C@H]([C@@H](C)O)NC(=O)[C@H](C)N(C)C(=O)[C@H](Cc2ccccc2)N(C)C(=O)[C@H](COCc2ccccc2)NC(=O)[C@H](Cc2ccccc2)N(C)C(=O)[C@H](CC(C)C)N(C)C1=O [pd368] ([NMeA]L[NMeL][NMeF]S(Bn)[NMeF][NMeA]T[Sar][NMeL]D-Piperidide; lactam N-11) — within 1.5-fold, 2 ×10⁻⁶ cm/s
